From US10787432B2, “N-[(pyridyloxy)propanyl]benzamides” (Boehringer Ingelheim International GmbH, priority 2016, dated 2020)
Read-outs that look alike come from different tables or passages of the source.

Assays:
human orexin 2 receptor = biological target: T1, human orexin 2 receptor (Homo sapiens, UniProt O43614); assay: Assay B: In vitro testing of OX2R potency: OX2R IP1 (HTRF, CHO-K1/hOX2 cells, Orexin A as agonist); format: cell-based; conditions: Orexin A 0.5 nM
T1 construct: stably expressing the full-length human orexin 2 receptor; expressed in transfected cells; host or cells: CHO-K1 (CHO-K1/hOX2), co-expressing aequorin
T1 sequence (O43614 1-444): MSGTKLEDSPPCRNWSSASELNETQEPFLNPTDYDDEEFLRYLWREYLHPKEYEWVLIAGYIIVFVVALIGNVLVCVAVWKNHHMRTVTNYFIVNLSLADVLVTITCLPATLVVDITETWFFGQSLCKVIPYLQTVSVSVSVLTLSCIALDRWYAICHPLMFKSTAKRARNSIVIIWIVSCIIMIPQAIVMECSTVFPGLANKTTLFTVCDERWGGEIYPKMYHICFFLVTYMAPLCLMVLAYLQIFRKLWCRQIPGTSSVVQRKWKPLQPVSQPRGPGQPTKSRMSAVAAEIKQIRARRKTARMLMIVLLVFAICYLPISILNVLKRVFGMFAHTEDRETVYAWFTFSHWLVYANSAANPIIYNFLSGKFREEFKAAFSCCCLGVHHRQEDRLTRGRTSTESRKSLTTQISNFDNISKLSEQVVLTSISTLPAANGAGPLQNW
Procedure, shortened: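 CHO-K1 cells stably expressing full-length human OX2R, pretreated 15 min at room temperature with compound (8-point, 1% DMSO) in HBSS/HEPES/BSA with 50 mM LiCl, pH 7.4, then stimulated 60 min at 37 °C with 0.5 nM Orexin A. IP1 by HTRF (665/615 ratio); IC50 from 4-parameter fit converted to agonist-independent Kb.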

human Orexin 1 receptor = biological target: T2, human Orexin 1 receptor (Homo sapiens, UniProt O43613); assay: Assay A: In vitro testing of OX1R potency: OX1R IP1 (HTRF, CHO-K1/hOX1 cells, Orexin A as agonist); format: cell-based; conditions: for Kb: read-out: OX1R Kb (Orexin A concentration used)
T2 construct: stably expressing the full-length human Orexin 1 receptor; expressed in transfected cells; host or cells: CHO-K1 (CHO-K1/hOX1), co-expressing aequorin
T2 sequence (O43613 1-425): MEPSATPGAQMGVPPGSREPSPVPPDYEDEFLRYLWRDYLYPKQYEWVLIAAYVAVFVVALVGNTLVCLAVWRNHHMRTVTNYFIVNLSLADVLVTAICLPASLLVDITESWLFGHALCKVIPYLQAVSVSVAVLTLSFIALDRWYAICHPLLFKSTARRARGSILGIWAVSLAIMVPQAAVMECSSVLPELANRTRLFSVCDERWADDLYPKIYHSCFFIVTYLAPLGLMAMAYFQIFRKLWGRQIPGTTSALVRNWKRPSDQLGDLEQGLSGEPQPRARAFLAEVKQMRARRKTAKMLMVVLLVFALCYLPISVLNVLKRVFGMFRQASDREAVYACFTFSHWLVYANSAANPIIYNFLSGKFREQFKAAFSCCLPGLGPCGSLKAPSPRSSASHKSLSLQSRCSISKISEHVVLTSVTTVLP

[1] = Assay C: Metabolic stability in human liver microsomes (Human MST); format: in vitro ADME; conditions: pooled human liver microsomes, pH 7.6; human liver microsomes 1 mg/mL, compound 1 μM, 37° C., NADPH; read-out: Human MST t1/2
Procedure, shortened: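 Test compound (1 μM) was incubated at 37 °C with pooled human liver microsomes (1 mg/mL protein) in 0.1 M TRIS pH 7.6 with 5 mM MgCl2, and reactions were started with 1 mM NADPH. Aliquots were quenched at several time points and parent compound was quantified by LC-MS/MS. t1/2 came from the slope of the semi-log concentration–time plot.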

| SMILES | Kb (human orexin 2 receptor) | OX2R Kb/OX1R Kb (human Orexin 1 receptor; OX1R Kb at 50 nM Orexin A) | Kb (human Orexin 1 receptor; Orexin A 50 nM) | half-life at 1 μM [1] | OX2R Kb/OX1R Kb (human Orexin 1 receptor; OX1R Kb at 0.5 nM Orexin A) | Kb (human Orexin 1 receptor; Orexin A 0.5 nM) |
| --- | --- | --- | --- | --- | --- | --- |
| CCN(C(=O)c1cc(C)ccc1-c1ncccn1)[C@@H](C)COc1ccc(C(F)(F)F)cn1 [Example 105] | 11 nM | 524 | 0.021 nM | 10 min | – | – |
| CCN(C(=O)c1ccc(C)cc1-c1nnc(C)o1)[C@@H](C)COc1ccc(OC(F)(F)F)cn1 [Example 121] | 440 nM | 293 | 1.5 nM | 15 min | 314 | 1.4 nM |
| CCN(C(=O)c1cc(F)cc(F)c1-n1nccn1)[C@@H](C)COc1ccc(C(F)(F)F)cn1 [Example 13] | 92 nM | 511 | 0.18 nM | 49 min | – | – |
| CCN(C(=O)c1cc(F)ccc1-c1ncccn1)[C@@H](C)COc1ccc(Br)cn1 [Example 120] | 43 nM | 358 | 0.12 nM | 76 min | 165 | 0.26 nM |
| CCN(C(=O)c1cc(F)ccc1-n1nccn1)[C@@H](C)COc1ncc(C(F)(F)F)cc1F [Example 51] | 189 nM | 430 | 0.44 nM | 36 min | 259 | 0.73 nM |
| CCN(C(=O)c1ccc(F)cc1-n1nccn1)[C@@H](C)COc1ccc(C(F)(F)F)cn1 [Example 1] | 58 nM | – | – | 38 min | 171 | 0.34 nM |
| CCN(C(=O)c1ccccc1-c1ncccn1)[C@@H](C)COc1ccc(Br)cn1 [Example 117] | 35 nM | 318 | 0.11 nM | 32 min | 194 | 0.18 nM |
| CCN(C(=O)c1cc(F)c(F)cc1-n1nccn1)[C@@H](C)COc1ccc(Cl)cn1 [Example 30] | 160 nM | – | – | 52 min | 70 | 2.3 nM |
| CCN(C(=O)c1ccc(F)c(F)c1-n1nccn1)[C@@H](C)COc1ncc(C(F)(F)F)cc1F [Example 50] | 283 nM | 410 | 0.69 nM | 46 min | – | – |
